These results are taken from patent publication US8518876B2, “Composition for long-acting peptide analogs” (Pharmaln Corporation, priority 2007, dated 2013).

The nature of this test: Binding of C12TerA to hydrophobic polymeric carrier (Scatchard plot, bound/free by HPLC). The conditions noted are these: carrier 2.5 mg/tube, PBS, incubated overnight; estimated, plot not completely linear. The source says: FIG. 17: This figure is a Scatchard plot showing the binding of C12TerA to polymeric carrier containing a hydrophobic group disclosed in U.S. patent application Ser. No. 11/613,183, which is hereby incorporated by reference. The carrier also referred to as PGC-HC18 or 20PLPEG555-C18 is made up of polylysine of 15-30 kDa where 55% of the amino group is covalently modified to contain 5 kDa methoxypolyethylene glycol attached by through succinate linker and the remaining 45% of the amino group is amide bonded to stearic acid carboxyl group all disclosed in U.S. patent application Ser. No. 11/613,183. […] The filtrate containing […] C12TerA was quantified by HPLC. […] It should be noted that some C12TerA can form micelle and may be counted as bound due to the analytical techniques used.
FIG. 17 is a Scatchard plot showing the binding of C12TerA to polymeric carrier containing a hydrophobic group disclosed in U.S. patent application Ser. No. 11/613,183, which is hereby incorporated by reference. […] The filtrate containing […] C12TerA was quantified by HPLC. […] It should be noted that some C12TerA can form micelle and may be counted as bound due to the analytical techniques used.
The amount of C12TerA capable of being bound to a carrier was determined by varying the amount of the analog in the presence of 10 mg/ml hydrophobic group containing carrier PGC-HC18 or 20PLPEG555-C18. […]

Where a SMILES comes first, the peptide text is derived from it. Bridges are numbered along the chain shown (N, C = ends). The star is where a group is joined. Lauroyl = CCCCCCCCCCCC(=O)*

The Kd is the equilibrium constant for the complex coming apart. In the case of `CCCCCCCCCCCC(=O)NCC(=O)NCC(=O)NCC(=O)N[C@H]1CSSC[C@@H](C(=O)N2CCC[C@H]2C(=O)N[C@@H](CCCCN)C(=O)NCC(N)=O)NC(=O)[C@H](CC(N)=O)NC(=O)[C@H](CCC(N)=O)NC(=O)[C@H](Cc2ccccc2)NC(=O)[C@H](Cc2ccc(O)cc2)NC1=O` [C12TerA, CH3(CH2)10CO-Gly-Gly-Gly-Cys-Tyr-Phe-Gln-Asn-Cys-Pro-Lys-Gly-NH2] (Lauroyl-GGGCYFQNCPKG-NH2; disulfide 4-9), the Kd was 1 to 5 µM.
